Consider four compounds from US12201684B2, “Compositions for stimulation of mammalian innate immune resistance to pathogens” (priority 2009, dated 2025).

The conditions of data set [1]: cited from earlier work.
The test system of data set [2] is P. aeruginosa strain PA103. The experiment in a line: In vivo inhalational P. aeruginosa challenge, survival. The following applies: wild type mice; aerosolized treatment 24 h prior to challenge.
Data set [3] relates to neutrophils and macrophages in BAL fluid. The experiment in a line: Bronchoalveolar lavage fluid leukocyte counts after aerosolized TLR ligands. Type of data set: in vivo, mice.

Turning to `CCC(=O)O[C@]1(C(=O)SCF)[C@H](C)C[C@H]2[C@@H]3C[C@H](F)C4=CC(=O)C=C[C@]4(C)[C@@]3(F)[C@@H](O)C[C@@]21C` [Fluticasone propionate, S-(fluromethyl)6α,9-difluoro-11β-17-dihydroxy-16α-methyl-3-oxoandrosta-1,4-diene-17β-carbothioate, 17-propionate], in data set [1], the “solubility in dimethyl sulfoxide and dimethylformamide” value was “freely soluble”; the “solubility in methanol and 95% ethanol” value is “slightly soluble”; the solubility in water result is listed as “practically insoluble”.

For `CC(C)Cn1cnc2c(N)nc3ccccc3c21` [imiquimod, 1-(2-methylpropyl)-1H-imidazo[4,5-c]quinolin-4-amine], the “protection against lethal P. aeruginosa pneumonia (survival)” value in data set [2] is on record as “trend towards protection”. Also, in data set [3] (BAL 24 h after treatment, highest concentrations tested), the “neutrophil infiltration above a certain ligand concentration” value is “reduction in neutrophil infiltration”.

As to monophosphoryl lipid A-synthetic [MPLA], in data set [2], the “protection against lethal P. aeruginosa pneumonia (survival)” value is listed as “non-significant trend towards increased mortality”.

Turning to poly(I:C), in data set [3] (24 h after treatment), the “influx of macrophages on BAL” value is “significant influx”.
